Reference: PMC11597774, “Investigation of Antimicrobial and Anti-Inflammatory Efficacy of Newly Synthesized Pyrogallol-Coumarin Hybrids: In Vitro and In Silico Studies” (Pharmaceutics, 2024)

Tested on: P. mirabilis ATCC 12453
Assay: Inhibition of biofilm formation (crystal violet)
Assay type: cell-based, Proteus mirabilis
Conditions: for BIC90: P. mirabilis ATCC 12453, 48 h; for IC50: Proteus mirabilis, ATCC12453, P. mirabilis ATCC 12453, 48 h, read-out: BIC50
Experimental: The ability of S. aureus ATCC 6538, P. mirabilis ATCC 12453, and P. aeruginosa ATCC 27853 to form biofilms was assayed as described by O’Toole et al. (2000), with some modifications. Briefly, tissue culture 96-well microtiter plates (Sarstedt, Germany) were prepared by dispensing 100 µL of nutrient broth (i.e., Mueller Hinton broth) into each well. Then, 10 µL of spore suspension (1.0 McFarland for Gram-positive bacteria and 0.5 McFarland for Gram-negative bacteria) was added to each row. To encourage biofilm formation, all plates were incubated at 37 °C for 48 h, after which the content of each well was emptied and washed twice with 200 µL of sterile 0.85% saline to remove non-adherent cells. The biofilms formed were fixed by adding 100 µL of methanol until it evaporated completely, then stained with 0.1% (w/v) crystal violet (Fluka AG, Buchs, Switzerland) and left at room temperature for 20 min. The excess stain was washed away with deionized water, followed by […] of 96% ethanol. The optical densities (ODs) of the stained biofilms were measured with an ELISA plate reader (RT-2100C, Rayto, Shenzhen, China) at 630 nm. Control wells containing only broth were included to verify sterility and prevent nonspecific media binding. To account for background absorbance, OD readings from sterile medium, fixative, and dye were averaged and subtracted from all test measurements. All tests were conducted in duplicate. The tissue culture 96-well microtiter plates (Sarstedt, Germany) were prepared by dispensing 100 µL of nutrient broth (i.e., Mueller Hinton broth) into each well. From the stock solutions of tested PCH-1 and PCH-2 (at a concentration of 5.4 µmol/L), 100 µL was added to the first row of the microtiter plate. Twofold serial dilutions were then performed, followed by the addition of 10 µL of bacterial suspension to each well. The turbidity of the bacterial suspension was 0.5 McFarland for Gram-negative bacteria and 1.0 McFarland for Gram-positive bacteria. The microtiter plates prepared in this way were incubated at 37 °C for 48 h. The remaining steps of the experiment were carried out as outlined below. […] Only broth or broth with tested PCH-1 and PCH-2 served as controls to check sterility and nonspecific binding of media. To compensate for background absorbance, OD readings from sterile medium, extracts, fixative, and dye were averaged and subtracted from all test values. All tests were performed in duplicate.

| Compound | BIC90 | IC50 [µM] |
| --- | --- | --- |
| C/C(NNC(=O)c1ccc(O)c(O)c1O)=C1\C(=O)Oc2ccccc2C1=O [PCH-1, (E)-N′-(1-(2,4-dioxochroman-3-ylidene)ethyl)-2,3,4-trihydroxybenzohydrazide] | ˃2.70 mM | > 2700 |
| C/C(NNC(=O)c1cc(O)c(O)c(O)c1)=C1\C(=O)Oc2ccccc2C1=O [PCH-2, (E)-N′-(1-(2,4-dioxochroman-3-ylidene)ethyl)-3,4,5-trihydroxybenzohydrazide] | ˃2.70 mM | 2150 |
